The test system of one data set is stress ulcers. Briefly: Anti-ulcerous properties: ulcerations in rat under stress for 7 hours, oral. In kind it is in vivo. The settings on record: for inhibition in vivo at 20 mg/kg: 20 mg/kg/p.o.
The test system of another data set is gastric secretion. Briefly: Gastric antisecretory properties: gastric secretion after Shay ligature, intraduodenal. Format: in vivo. Conditions: rat, read-out: Reduction of volume of gastric secretion; for inhibition in vivo at 1.5 mg/kg: 1.5 mg/kg/i.d.; for inhibition in vivo at 10 mg/kg: 10 mg/kg/i.d. The text has this: Administered intraduodenally to a rat, the compounds of formula (I) are capable of reducing gastric secretion measured after Shay ligature.

In a further data set the test system is Shay's ulcer. Briefly: Anti-ulcerous properties: ulceration caused by ligature of the pylorus (Shay's ulcers), intraduodenal. The settings on record: rat, read-out: Percentage reduction of Shay's ulcer; for inhibition in vivo at 10 mg/kg: 10 mg/kg/i.d.; for inhibition in vivo at 7.3 mg/kg: 7.3 mg/kg/i.d. In kind it is in vivo. The text has this: Furthermore, the compounds of formula (I) administered intraduodenally reduce the ulceration area caused by ligature of the pylorus of a rat (Shay's ulcers).

Data set [1] is described as follows: Acute toxicity, lethal dose 50. The settings on record: mouse, in vivo, po, read-out: Lethal dose 50 (mouse) / DL 50 (mouse) (converted).
Another data set has as its system painful stretchings. Briefly: Analgesic: painful stretchings following intraperitoneal injection of acetic acid. In kind it is in vivo. Conditions: po, mouse, read-out: Percentage diminution painful stretchings. The text has this: The compounds of formula (I), administered orally to a mouse, are capable of reducing the number of painful stretchings following intraperitioneal injection of acetic acid.

For data set [2], the system named is bronchoconstriction caused by acetylcholine. Briefly: Anticholinergic and antibronchoconstrictive: bronchoconstriction by intravenous acetylcholine, Konzett's method. In kind it is in vivo. The settings on record: Cavia porcellus, guinea-pig, read-out: Percentage inhibition of the bronchoconstriction. An excerpt: Injected intravenously or intraduodenally, the compounds of formula (I) are capable of opposing bronchoconstriction caused in a guinea-pig by intravenous injection of acetylcholine and evaluated by Konzett's method.

Another data set deals with sub-plantar oedema. Briefly: Anti-inflammatory: sub-plantar oedema caused by carragenine. Conditions: po, rat, read-out: Percentage reduction of sub-plantar oedema; for inhibition in vivo at 50 mg/kg: 50 mg/kg/p.o. Format: in vivo.
The mark [3] stands for this setting: po, read-out: Percentage reduction of stress ulcers.

In the case of `O=C(CN1CCN(Cc2nc3ccccc3n2CCC(=O)c2ccccc2)CC1)NC1CCCC1` [74 0751], the ED50 in the data set on stress ulcers (oral, read-out: DE 50, stress ulcers) is 11 mg/kg. In addition, the inhibition in vivo at 4.5 mg/kg in the data set with gastric secretion (intraduodenal, 4.5 mg/kg/i.d.) amounted to 69%. Moreover, in the data set on Shay's ulcer, the inhibition in vivo at 10 mg/kg stood at 89%. Also, in data set [1], the LD50 was 1100 mg/kg.
Take `CCCCNC(=O)CN1CCN(Cc2nc3ccccc3n2CCC(=O)c2ccccc2)CC1` [74 0186]: the values for the inhibition in vivo at 40 mg/kg with painful stretchings (40 mg/kg/p.o.) and in the data set with sub-plantar oedema (40 mg/kg/p.o.) were 77% and 48%, respectively. Besides, the inhibition in vivo at 2 mg/kg in data set [2] (iv, i.v., 2 mg/kg) was 100%. For the same molecule, the inhibition in vivo at 7.4 mg/kg in the data set on stress ulcers (po, 7.4 mg/kg/p.o., read-out: Percentage reduction of stress ulcers) was found to be 98%. In addition, the inhibition in vivo at 1.5 mg/kg in the data set with gastric secretion (intraduodenal) was found to be 67%. In addition, the inhibition in vivo at 14.8 mg/kg in the data set with Shay's ulcer (14.8 mg/kg/i.d.) came to 75%. In data set [1], the LD50 was 360 mg/kg.
Take `CC(C)N(C(=O)CN1CCN(Cc2nc3ccccc3n2CCC(=O)c2ccccc2)CC1)C(C)C` [74 0453]: in data set [2] (iv, i.v., 2.5 mg/kg), the inhibition in vivo at 2.5 mg/kg worked out at 100%. Moreover, the inhibition in vivo at 7.3 mg/kg with Shay's ulcer was determined as 82%. For the same molecule, the LD50 in data set [1] is 1000 mg/kg.
As for `CCCN(CCC)C(=O)CN1CCN(Cc2nc3ccccc3n2CCC(=O)c2ccccc2)CC1` [74 0196], the inhibition in vivo at 7.3 mg/kg in the data set on stress ulcers (po, 7.3 mg/kg/p.o., read-out: Percentage reduction of stress ulcers) was determined as 88%; in the data set on Shay's ulcer, 90%. Also, the inhibition in vivo at 1.5 mg/kg in the data set with gastric secretion (intraduodenal) came to 74%. Also, the LD50 in data set [1] was 2100 mg/kg.
Regarding `CC(C)NC(=O)CN1CCN(Cc2nc3ccccc3n2CCC(=O)c2ccc(Cl)cc2)CC1` [75 0012], in the data set on stress ulcers (setting [3]), the inhibition in vivo at 20 mg/kg was determined as 64%. The results for the inhibition in vivo at 10 mg/kg with gastric secretion (intraduodenal) and in the data set with Shay's ulcer were 63% and 73%, respectively. Also, the LD50 in data set [1] is 1300 mg/kg.
On to `CCCNC(=O)CN1CCN(Cc2nc3ccccc3n2CCC(=O)c2ccccc2)CC1` [74 0159], for which the figures for the inhibition in vivo at 50 mg/kg in the data set on painful stretchings (50 mg/kg/p.o.) and in the data set with sub-plantar oedema were 40% and 57%, respectively. Also, the inhibition in vivo at 5 mg/kg in data set [2] (iv, i.v., 5 mg/kg) was found to be 100%. In addition, the inhibition in vivo at 7.5 mg/kg in the data set with stress ulcers (po, 7.5 mg/kg/p.o., read-out: Percentage reduction of stress ulcers) was 100%. Further, the inhibition in vivo at 7.6 mg/kg in the data set with stress ulcers (po, 7.6 mg/kg/p.o., read-out: Percentage reduction of stress ulcers) is 100%. Besides, the inhibition in vivo at 1.5 mg/kg with gastric secretion (intraduodenal) was 77%. Besides, the inhibition in vivo at 15.1 mg/kg in the data set on Shay's ulcer (15.1 mg/kg/i.d.) turned out to be 100%. Further, the LD50 in data set [1] is 1250 mg/kg.
With `Cc1ccc(C(=O)CCn2c(CN3CCN(CC(=O)NC(C)C)CC3)nc3ccccc32)cc1` [75 0009], the inhibition in vivo at 20 mg/kg in the data set with stress ulcers (setting [3]) came to 90%; in the data set on Shay's ulcer (20 mg/kg/i.d.), 56%. Besides, the inhibition in vivo at 10 mg/kg in the data set with gastric secretion (intraduodenal) turned out to be 62%. Also, in data set [1], the LD50 is 1800 mg/kg.
Regarding `CNC(=O)CN1CCN(Cc2nc3ccccc3n2CCC(=O)c2ccccc2)CC1` [74 0145], the results for the inhibition in vivo at 10 mg/kg with painful stretchings (10 mg/kg/p.o.) and in the data set with sub-plantar oedema (10 mg/kg/p.o.) were 70% and 40%, respectively. Further, in data set [2] (iv, i.v., 0.5 mg/kg), the inhibition in vivo at 0.5 mg/kg stood at 75%. Besides, in the data set with stress ulcers (po, 7.7 mg/kg/p.o., read-out: Percentage reduction of stress ulcers), the inhibition in vivo at 7.7 mg/kg was found to be 100%. For the same molecule, the inhibition in vivo at 1.6 mg/kg in the data set on gastric secretion (intraduodenal, 1.6 mg/kg/i.d.) was 88%. Moreover, the inhibition in vivo at 15.5 mg/kg in the data set on Shay's ulcer (15.5 mg/kg/i.d.) worked out at 100%. Moreover, the LD50 in data set [1] is 180 mg/kg.
Regarding `O=C(CCn1c(CN2CCN(CC(=O)N3CCCC3)CC2)nc2ccccc21)c1ccccc1` [73 0458, 1-(2'-benzoyleth-1' yl) 2-(4"-pyrrolidinocarbonylmethylpiperazine-1" ylmethyl) benzimidazole], the inhibition in vivo at 100 mg/kg in data set [2] (intraduodenal, i.d., 100 mg/kg) amounted to 67%. Also, the inhibition in vivo at 5 mg/kg in the data set on stress ulcers (po, 5 mg/kg/p.o., read-out: Percentage reduction of stress ulcers) came out at 77%. Besides, in the data set with gastric secretion (Rat2, intraduodenal, 2 mg/kg/i.d.), the inhibition in vivo at 2 mg/kg stood at 19%. The inhibition in vivo at 10 mg/kg in the data set with Shay's ulcer amounted to 90%.
For `COc1cccc(C(=O)CCn2c(CN3CCN(CC(=O)NC(C)C)CC3)nc3ccccc32)c1` [75 0010], the inhibition in vivo at 20 mg/kg in the data set on stress ulcers (setting [3]) was determined as 77%. In addition, the inhibition in vivo at 25 mg/kg in the data set with gastric secretion (intraduodenal, 25 mg/kg/i.d.) worked out at 82%. The inhibition in vivo at 40 mg/kg with Shay's ulcer (40 mg/kg/i.d.) was found to be 86%. Moreover, the LD50 in data set [1] is 1200 mg/kg.
Turning to `O=C(CCn1c(CN2CCN(CC(=O)N3CCOCC3)CC2)nc2ccccc21)c1ccccc1` [74 0160], the inhibition in vivo at 6 mg/kg in the data set with stress ulcers (po, 6 mg/kg/p.o., read-out: Percentage reduction of stress ulcers) came out at 76%. Also, the inhibition in vivo at 1.5 mg/kg with gastric secretion (intraduodenal) amounted to 45%. Also, in the data set on sub-plantar oedema, the inhibition in vivo at 50 mg/kg was determined as 50%. Besides, the inhibition in vivo at 15 mg/kg in the data set with Shay's ulcer (15 mg/kg/i.d.) was found to be 99%. Moreover, in data set [1], the LD50 was 1700 mg/kg.

Source of the values: patent US4104384A, “1-(2'-Aroyl eth-1'yl) 2-(4"-acetamido piperazine-1"yl methyl) benzimidazoles and their therapeutical applications” (priority 1975, dated 1978).
